Source: paper PMC5426640, “A novel multifunctional peptide oligomer of bacitracin with possible bioindustrial and therapeutic applications from a Korean food-source Bacillus strain” (PLoS ONE, 2017)
Where a SMILES comes first, the peptide text is derived from it. Bridges are numbered along the chain shown (N, C = ends). [ ]: non-standard residue; d: D form. The star is where a group is joined. Ileψ(thiazoline)Cys = CC[C@H](C)[C@H](N)C1=N[C@H](C(=O)*)CS1; dOrn = NCCC[C@@H](N)C(=O)O

Legend:
Format in all cases: cell-based, mouse
[1] = test system: COX-2; assay: Western blot of protein expression in LPS-stimulated RAW 264.7 cells; details: 10, 50, or 100 μg/mL, LPS 1 μg/mL, 24 h
Protocol: (§1) Macrophages were incubated with or without LPS in the presence or absence of the AMPs. Cells were harvested, washed twice with ice-cold Tris-HCl-buffered saline (TBS), and resuspended in lysis buffer [100 mM Tris-HCl, 5 mM EDTA, 50 mM NaCl, 50 mM β- glycerophosphate, 50 mM NaF (sodium fluoride), 0.5% NP-40, 1% sodium deoxycholate, 0.1 mM sodium orthovanadate, and 1% phenylmethylsulfonyl fluoride (PMSF)]. The cytosolic fraction was obtained from the supernatant after […] centrifugation at 4°C for 20 min. Samples (20 μg in terms of protein) were separated by sodium dodecyl sulfate-polyacrylamide gel electrophoresis (SDS-PAGE) in a 10% gel and transferred to polyvinylidene difluoride (PVDF) membranes. The membranes were blocked with 5% nonfat milk in TBS with Tween 20 (0.1%) for 2 h and then incubated with primary antibodies specific for ERK, phospho-ERK, JNK, phospho-JNK, p38 MAPK, phospho-p38 MAPK (all them from Cell Signaling Technology), NF-κB, IκB, and phospho-IκB (1:1000; Santa Cruz Biotechnology). […] After three washes with TBS–Tween 20, the membrane was hybridized with an HRP-conjugated secondary antibody for 1 h. […] The immunoreactive proteins were detected by means of a LAS-3000 Luminescent image analyzer (Fuji Photo Film Co., Ltd., Tokyo, Japan).

[2] = test system: iNOS; assay: as above; details: 10, 50, or 100 μg/mL, LPS 1 μg/mL, 24 h
Protocol: as §1

[3] = test system: NF-κB (p65); assay: Western blot of NF-κB translocation into the nucleus in LPS-stimulated RAW 264.7 cells; details: CSP32 1 h prior to LPS 1 μg/mL
Protocol: as §1

[4] = test system: IκBα; assay: Western blot of IκBα phosphorylation in LPS-stimulated RAW 264.7 cells; details: CSP32 1 h prior to LPS 1 μg/mL
Protocol: as §1

CC[C@H](C)[C@H](N)C1=N[C@H](C(=O)N[C@@H](CC(C)C)C(=O)N[C@H](CCC(=O)O)C(=O)N[C@H](C(=O)N[C@H]2CCCCNC(=O)[C@H](CC(N)=O)NC(=O)[C@@H](CC(=O)O)NC(=O)[C@H](Cc3c[nH]cn3)NC(=O)[C@@H](Cc3ccccc3)NC(=O)[C@H]([C@@H](C)CC)NC(=O)[C@@H](CCCN)NC2=O)[C@@H](C)CC)CS1 [CSP32] ({Ileψ(thiazoline)Cys}-L[dE]IK[dOrn]I[dF]H[dD]N; lactam 4-C; N-terminus assumed)
Effect on LPS-induced COX-2 protein expression [1]: significantly attenuated this induction in a dose-dependent manner
Effect on LPS-induced iNOS protein expression [2]: significantly attenuated this induction in a dose-dependent manner
Effect on LPS-induced changes in the levels of p65 in the nucleus and cytoplasm [3]: attenuated
Effect on LPS-increased level of p-IκBα [4]: attenuated by CSP32 treatment (dose dependently)
